In PMC9491098, “Discovery of novel drug-like antitubercular hits targeting the MEP pathway enzyme DXPS by strategic application of ligand-based virtual screening” (Chemical Science, 2022):

target: T1, MtDXPS (Mycobacterium tuberculosis, UniProt P9WNS3); assay: biochemical; conditions: K i* (μM), Table 1A, indole derivatives, MtDXPS
T1 sequence (P9WNS3 whole entry, looked up): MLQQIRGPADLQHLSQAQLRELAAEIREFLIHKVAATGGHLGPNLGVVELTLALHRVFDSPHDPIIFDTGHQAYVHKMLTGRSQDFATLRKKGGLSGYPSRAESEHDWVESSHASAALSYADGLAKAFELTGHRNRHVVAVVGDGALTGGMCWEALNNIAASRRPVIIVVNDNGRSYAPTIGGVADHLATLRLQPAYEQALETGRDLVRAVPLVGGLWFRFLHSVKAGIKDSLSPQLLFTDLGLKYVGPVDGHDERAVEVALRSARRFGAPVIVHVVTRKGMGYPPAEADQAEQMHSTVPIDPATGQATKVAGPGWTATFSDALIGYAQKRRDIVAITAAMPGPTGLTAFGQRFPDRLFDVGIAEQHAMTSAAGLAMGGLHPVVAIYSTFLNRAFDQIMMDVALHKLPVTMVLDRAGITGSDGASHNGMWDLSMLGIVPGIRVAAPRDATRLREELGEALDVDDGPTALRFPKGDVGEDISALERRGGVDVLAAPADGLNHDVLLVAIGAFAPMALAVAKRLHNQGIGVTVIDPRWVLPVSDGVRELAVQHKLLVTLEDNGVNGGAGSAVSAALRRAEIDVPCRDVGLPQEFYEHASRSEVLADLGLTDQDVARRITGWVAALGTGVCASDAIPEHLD

| Compound | Ki |
| --- | --- |
| O=Cc1cn(Cc2ccc(Cl)c(Cl)c2)c2ccccc12 [Compound 13] | > 10 µM |

same assay, conditions: SAR discussion of Table 1A–C

| Compound | inhibitory activity against MtDXPS, SAR statement |
| --- | --- |
| N/N=C(\Cc1ccc(Cl)cc1)c1ccc(O)cc1O [Compound 21] | activity is partially retained |

same assay, conditions: Table 1A, indole derivatives, MtDXPS; read-out: K i*

| Compound | Ki |
| --- | --- |
| COCc1cn(Cc2ccc(Cl)c(Cl)c2)c2ccccc12 [Compound 14] | > 5 µM |
| OCc1cn(Cc2cccc(Cl)c2)c2ccccc12 [Compound 15] | > 10 µM |
| OCc1cn(Cc2ccc(Cl)cc2)c2ccccc12 [Compound 16] | 5.5 ± 0.6 µM |
| N#Cc1ccc2c(CO)cn(Cc3ccc(Cl)c(Cl)c3)c2c1 [Compound 18] | 1.7 ± 0.3 µM |
| COc1cccc2c(CO)cn(Cc3ccc(Cl)c(Cl)c3)c12 [Compound 19] | 1.4 ± 0.3 µM |

same assay, conditions: Table 1B, oxime derivatives, MtDXPS; read-out: K i*

| Compound | Ki |
| --- | --- |
| CO/N=C(\Cc1ccc(Cl)cc1)c1ccc(O)cc1O [Compound 20] | > 10 µM |
| N/N=C(\Cc1ccc(Cl)cc1)c1ccc(O)cc1O [Compound 21] | 0.4 ± 0.05 µM |
| COc1ccc(C/C(=N\O)c2ccc(O)cc2O)cc1 [Compound 22] | > 10 µM |
| COc1ccc(/C(Cc2ccc(Cl)cc2)=N/O)c(O)c1 [Compound 24] | 0.5 ± 0.1 µM |

same assay, conditions: Table 1C, aminothiazole derivatives, MtDXPS; read-out: K i*

| Compound | Ki |
| --- | --- |
| Cc1nc(N)sc1-c1csc(Nc2ccccc2)n1 [Compound 26] | > 10 µM |
| Cc1nc(N)sc1-c1csc(Nc2ccccc2C(F)(F)F)n1 [Compound 27] | 0.3 ± 0.02 µM |
| Cc1nc(N)sc1-c1csc(Nc2cccc(C(F)(F)F)c2)n1 [Compound 28] | 0.4 ± 0.06 µM |
| Oc1ccc(-c2csc(Nc3cccc(C(F)(F)F)c3)n2)c(O)c1 [Compound 29] | 0.5 ± 0.04 µM |
| Cc1nc(N)sc1-c1csc(Nc2ccc(Cl)cn2)n1 [Compound 30] | 0.3 ± 0.1 µM |
| Cc1nc(C)c(-c2csc(Nc3ccc(Cl)cn3)n2)s1 [Compound 31] | > 10 µM |

target: T1, MtDXPS; assay: biochemical; conditions: not given

| Compound | IC50 | inhibition at 1000 μM |
| --- | --- | --- |
| COc1cncc(Cn2ccnc2)c1 [Compound 1, reference compound] | > 2000 µM |  |
| OCc1cc(CO)n(CCc2c[nH]cn2)n1 [Compound 2, reference compound] | > 2000 µM |  |
| COc1cc(Cl)c(/C=C2\SC(=S)N(CC(=O)O)C2=O)c(OC)c1 [Compound 50] | > 240 µM |  |
| O=C(O)Cc1ccc(-n2cnnn2)cc1 [Compound 53] |  | ~ 25 % inhibition |
| NC(Cc1ccc(O)cc1)c1nc2ccccc2[nH]1 (stereo not drawn) [Compound 75] | > 1000 µM |  |
| O=Cc1ccc(O[C@@H]2O[C@H](CO)[C@@H](O)[C@H](O)[C@H]2O)cc1 [Compound 82] | > 1000 µM |  |

same assay, conditions: IC50 (μM)

| Compound | IC50 |
| --- | --- |
| Cc1cccc(C(=O)N2CCC(C(N)=O)CC2)c1 [Compound 44] | > 1000 µM |

same assay, conditions: IC50 against MtDXPS

| Compound | IC50 |
| --- | --- |
| CC(C)c1ccc(C(C)N2Cc3nc(N)ncc3C2=O)cc1 (stereo not drawn) [Compound 4] | 1020 ± 88 µM |
| Cc1nc(C)c(-c2csc(Nc3cccc(Cl)c3C)n2)s1 [Compound 8] | 117 ± 25 µM |

same assay, conditions: Table S1, first round of LBVS; MtDXPS; read-out: IC50

| Compound | IC50 |
| --- | --- |
| CSc1ccc(C2N=C(N)Nc3nc4ccccc4n32)cc1 (stereo not drawn) [Compound 37] | > 60 µM |
| Cc1sc(N)c(C(=O)c2ccccc2)c1C [Compound 38] | > 120 µM |
| Cc1n[nH]c(O)c1C1OC(=O)c2ccccc21 (stereo not drawn) [Compound 39] | > 1000 µM |
| CCn1c(S)nnc1-c1csc2c1CCCC2 [Compound 40] | > 240 µM |
| Cc1ccccc1-n1c(S)nnc1-c1csc2c1CCCC2 [Compound 41] | > 8 µM |
| Cc1nn(CCc2nnc(S)n2Cc2ccccc2)c(C)c1Br [Compound 42] | > 30 µM |
| Oc1ncnc(O)c1C(c1cccs1)c1c(O)ncnc1O [Compound 43] | > 500 µM |
| Cc1nc(-c2ccccc2)nc(Nc2ccccc2)c1Cc1ccccc1 [Compound 45] | > 15 µM |
| COc1ccc2[nH]cc(C3NC(N)=Nc4nc5ccccc5n43)c2c1 (stereo not drawn) [Compound 46] | > 500 µM |
| CC(C)c1ccc(CN(C(=O)COc2ccccc2)c2ccccn2)cc1 [Compound 47] | > 30 µM |
| O=C(O)CCc1ccc(-c2ccc(F)cc2)n1Cc1ccco1 [Compound 48] | > 500 µM |
| Cc1ccc(C2NC(N)=Nc3nc4ccccc4n32)o1 (stereo not drawn) [Compound 49] | > 1000 µM |
| Nn1c(S)nnc1Cn1cnc2ccccc21 [Compound 51] | > 1000 µM |
| CCNC(=S)Nc1ccc(Cc2ccncc2)cc1 [Compound 52] | > 240 µM |
| S=c1[nH]ccn1Cc1ccccc1 [Compound 54] | > 500 µM |
| Cc1cc(C(=O)O)c(-c2ccccc2)o1 [Compound 55] | > 1000 µM |
| O=C1NC(=O)C(c2ccccc2)N1 (stereo not drawn) [Compound 56] | > 1000 µM |
| N=C1NC(=O)C(CC(N)=O)S1 (stereo not drawn) [Compound 57] | > 1000 µM |
| CN(C)Cc1ccc(O)cc1 [Compound 58] | > 1000 µM |
| C=CCN1C(=O)N/C(=C/c2ccc(O)c(OCC)c2)C1=O [Compound 59] | > 30 µM |
| O=C1N/C(=C/c2ccc(O)c(I)c2)C(=O)N1c1ccc(Cl)cc1 [Compound 60] | > 120 µM |
| OCc1cccnc1-c1nc2ccccc2s1 [Compound 61] | > 60 µM |
| COc1ccc(OC)c(C2CC(=O)NC3=C2C(=O)CCC3)c1 (stereo not drawn) [Compound 63] | > 500 µM |
| CC(C)(CO)NCc1cccs1 [Compound 64] | > 1000 µM |

same assay, conditions: Table S3, third round of LBVS; MtDXPS; read-out: IC50

| Compound | IC50 |
| --- | --- |
| Cc1nc(N)sc1-c1csc(Nc2ccccc2)n1 [Compound 26] | > 120 µM |
| Cc1nc(C)c(-c2csc(Nc3ccc(Cl)cn3)n2)s1 [Compound 31] | > 500 µM |

target: DrDXPS (WT) (Deinococcus radiodurans, UniProt Q9RUB5); assay: not given; conditions: pseudo-inhibitors; cited from earlier work
Sequence (Q9RUB5 whole entry, looked up): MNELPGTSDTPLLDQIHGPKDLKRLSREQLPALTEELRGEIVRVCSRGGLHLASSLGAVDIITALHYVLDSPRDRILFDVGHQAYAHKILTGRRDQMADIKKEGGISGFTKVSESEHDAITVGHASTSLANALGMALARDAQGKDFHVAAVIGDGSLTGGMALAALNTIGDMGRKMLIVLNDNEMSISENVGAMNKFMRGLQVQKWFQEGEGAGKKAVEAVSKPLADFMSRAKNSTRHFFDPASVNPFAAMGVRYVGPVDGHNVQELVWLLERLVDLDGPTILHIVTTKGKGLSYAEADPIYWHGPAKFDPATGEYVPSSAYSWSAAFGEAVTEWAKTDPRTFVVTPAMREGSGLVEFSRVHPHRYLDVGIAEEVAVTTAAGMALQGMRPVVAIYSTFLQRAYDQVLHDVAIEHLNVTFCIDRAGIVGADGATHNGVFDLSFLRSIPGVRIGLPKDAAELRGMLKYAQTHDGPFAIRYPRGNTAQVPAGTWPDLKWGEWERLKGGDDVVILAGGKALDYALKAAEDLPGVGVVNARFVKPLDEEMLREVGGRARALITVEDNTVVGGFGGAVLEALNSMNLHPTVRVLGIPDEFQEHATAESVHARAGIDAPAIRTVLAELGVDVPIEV

| Compound | inhibition of DrDXPS |
| --- | --- |
| COc1cncc(Cn2ccnc2)c1 [Compound 1, reference compound] | weak inhibitors |
| OCc1cc(CO)n(CCc2c[nH]cn2)n1 [Compound 2, reference compound] | weak inhibitors |
